Measurements from patent US20090298878A1, “OXIME COMPOUNDS AND THE USE THEREOF” (priority 2006, published 2009).
Structures can show the parent of a compound that is named as a salt.

Biological target: T1, N-type calcium channel (NTCC) (Homo sapiens, UniProt Q00975)
T1 construct: host or cells: IMR32 cells differentiated with dibutyryl cAMP and bromodeoxyuridine
Assay: FLIPR calcium mobilization assay for N-type calcium channel (differentiated IMR32 cells)
Assay type: cell-based
Details: about 1.0 μM or less; calcium mobilization and/or electrophysiological assay
Procedure: Cell maintenance and differentiation. Unless noted otherwise, cell culture reagents were purchased from Mediatech of Hemdon, Md. IMR32 cells (American Type Culture Collection, ATCC, Manassas, Va.) were routinely cultured in growth medium consisting of minimum essential medium containing 10% fetal bovine serum (FBS, Hyclone, Logan, Utah), 100 U/mL penicillin, 100 μg/mL streptomycin, 2 mM L-glutamine, 1 mM sodium pyruvate, and 1× MEM non-essential amino acids. 80-90% confluent flasks of cells were differentiated using the following differentiation medium: Growth medium plus 1 mM dibutyryl cyclic AMP (Sigma, St. Louis, Mo.), and 2.5 μM bromodeoxyuridine (Sigma). Cells were differentiated for 8 days by replacing differentiation medium every 2-3 days.
FLIPR Calcium Mobilization Assay for N-type Calcium Channel. One day prior to performing this assay, differentiated IMR32 cells were treated with 1× CellStripper, and seeded on poly-D-lysine-coated 96-well clear-bottom black plates (Becton Dickinson, Franklin Lakes, N.J.) at 200,000 cells/well. On the day of the assay, the cell plates were washed with IMR32 buffer (127 mM NaCl, 1 mM KCl, 2 mM MgCl2, 700 μM NaH2PO4, 5 mM CaCl2, 5 mM NaHCO3, 8 mM HEPES, 10 mM glucose, pH 7.4), then pre-stimulated with KCl and loaded as follows: 0.05 mL of IMR32 buffer, 0.05 mL of each compound tested diluted in IMR32 buffer containing 20 μM nitrendipine (Sigma), and 0.1 mL KCl dissolved in IMR32 buffer, plus Fluo-4 were added (3 μM final concentration, Molecular Probes, Eugene, Oreg.). Final test compound concentrations ranged from about 846 pM to about 17 μM, final nitrendipine concentration was 5 μM, and final KCl concentration was 90 mM. After 1 hour, the cells were washed twice with 0.05 mL of each compound tested in nitrendipine-containing IMR32 buffer (no KCl or Fluo-4), and then replaced with 0.1 mL of each compound tested in nitrendipine-containing IMR32 buffer. Plates were then transferred to a Fluorimetric imaging Plate Reader (FLIPR^96, Molecular Devices, Inc., Sunnyvale, Calif.) for assay. The FLIPR measured basal Fluo-4 fluorescence for 315 seconds (i.e., 5 minutes and 15 seconds), then added 0.1 mL KCl agonist dissolved in IMR32 buffer and measured fluorescence for another 45 seconds. Final test compound concentrations on the cells after FLIPR read ranged from about 846 pM to about 17 μM, final nitrendipine concentration was 5 μM, and final KCl concentration was 90 mM. Data were collected over the entire time course and analyzed using Excel, Graph Pad Prism (version 3.02, Graph Pad, San Diego, Calif.), or an in-house non-linear regression analysis software.

T1 sequence (Q00975 whole entry): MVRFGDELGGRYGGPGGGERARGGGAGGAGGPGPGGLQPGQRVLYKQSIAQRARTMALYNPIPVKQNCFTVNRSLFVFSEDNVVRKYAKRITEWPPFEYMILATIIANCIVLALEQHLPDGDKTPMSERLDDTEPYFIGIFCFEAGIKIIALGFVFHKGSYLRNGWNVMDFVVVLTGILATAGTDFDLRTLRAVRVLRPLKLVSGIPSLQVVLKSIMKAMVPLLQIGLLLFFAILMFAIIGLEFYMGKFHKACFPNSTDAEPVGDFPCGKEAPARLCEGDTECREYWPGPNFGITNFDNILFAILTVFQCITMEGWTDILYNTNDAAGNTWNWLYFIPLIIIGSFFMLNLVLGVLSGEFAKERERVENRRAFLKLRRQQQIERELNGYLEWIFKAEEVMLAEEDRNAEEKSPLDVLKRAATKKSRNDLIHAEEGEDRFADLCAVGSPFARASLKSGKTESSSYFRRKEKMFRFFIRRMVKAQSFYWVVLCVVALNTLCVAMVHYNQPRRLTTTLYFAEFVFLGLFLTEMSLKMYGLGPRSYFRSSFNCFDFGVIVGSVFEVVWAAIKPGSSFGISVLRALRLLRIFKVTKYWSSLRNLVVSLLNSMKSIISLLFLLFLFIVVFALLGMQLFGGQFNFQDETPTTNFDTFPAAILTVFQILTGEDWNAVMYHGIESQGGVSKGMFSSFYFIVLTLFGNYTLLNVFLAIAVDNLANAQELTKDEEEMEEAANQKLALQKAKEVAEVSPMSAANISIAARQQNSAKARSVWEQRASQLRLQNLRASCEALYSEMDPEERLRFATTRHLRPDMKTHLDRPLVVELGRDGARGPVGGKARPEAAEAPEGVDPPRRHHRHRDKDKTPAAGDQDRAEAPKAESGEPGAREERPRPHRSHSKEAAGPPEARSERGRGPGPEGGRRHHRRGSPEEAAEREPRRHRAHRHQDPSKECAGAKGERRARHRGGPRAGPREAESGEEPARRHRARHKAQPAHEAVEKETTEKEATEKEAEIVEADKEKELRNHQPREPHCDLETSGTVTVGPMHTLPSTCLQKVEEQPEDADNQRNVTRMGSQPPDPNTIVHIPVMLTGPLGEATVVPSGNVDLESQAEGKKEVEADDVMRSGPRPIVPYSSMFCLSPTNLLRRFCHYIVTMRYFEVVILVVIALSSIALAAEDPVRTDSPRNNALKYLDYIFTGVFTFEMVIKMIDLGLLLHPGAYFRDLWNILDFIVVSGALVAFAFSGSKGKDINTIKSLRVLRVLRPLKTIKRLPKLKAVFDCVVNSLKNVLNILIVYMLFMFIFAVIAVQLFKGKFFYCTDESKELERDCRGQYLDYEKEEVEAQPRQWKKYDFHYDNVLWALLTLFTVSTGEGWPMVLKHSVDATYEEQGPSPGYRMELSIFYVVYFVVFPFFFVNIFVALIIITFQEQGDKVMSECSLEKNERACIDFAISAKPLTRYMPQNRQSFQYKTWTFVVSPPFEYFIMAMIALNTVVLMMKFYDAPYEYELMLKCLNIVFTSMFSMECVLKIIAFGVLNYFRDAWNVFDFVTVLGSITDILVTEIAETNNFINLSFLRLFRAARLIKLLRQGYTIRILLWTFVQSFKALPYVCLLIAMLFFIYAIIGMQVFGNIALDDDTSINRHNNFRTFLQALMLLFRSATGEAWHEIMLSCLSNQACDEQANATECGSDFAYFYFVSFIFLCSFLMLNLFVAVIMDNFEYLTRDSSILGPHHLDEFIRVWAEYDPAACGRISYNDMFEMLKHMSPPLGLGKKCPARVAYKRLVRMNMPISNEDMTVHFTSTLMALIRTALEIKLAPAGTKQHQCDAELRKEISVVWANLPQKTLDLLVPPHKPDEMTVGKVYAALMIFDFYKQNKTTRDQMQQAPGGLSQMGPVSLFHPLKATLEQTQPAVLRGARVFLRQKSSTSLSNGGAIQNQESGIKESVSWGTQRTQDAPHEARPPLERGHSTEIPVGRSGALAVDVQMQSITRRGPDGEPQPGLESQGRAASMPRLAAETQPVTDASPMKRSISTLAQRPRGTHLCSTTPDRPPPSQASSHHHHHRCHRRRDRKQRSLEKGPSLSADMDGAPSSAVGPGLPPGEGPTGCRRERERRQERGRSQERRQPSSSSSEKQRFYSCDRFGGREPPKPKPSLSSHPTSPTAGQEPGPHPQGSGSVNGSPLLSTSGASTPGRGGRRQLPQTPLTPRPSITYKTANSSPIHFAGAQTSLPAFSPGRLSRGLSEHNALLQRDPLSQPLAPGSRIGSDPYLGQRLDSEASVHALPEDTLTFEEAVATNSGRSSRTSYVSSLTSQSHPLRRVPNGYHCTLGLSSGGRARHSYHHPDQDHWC

Row | SMILES | IC50
1 | O=C(CCC(c1ccc(F)cc1)c1ccc(F)cc1)N1CCC(=NOCc2cccc(C(F)(F)F)c2)CC1 [Example 29, 1-[4,4-Bis-(4-fluorophenyl)butyryl]piperidin-4-one O-(3-trifluoromethylbenzyl)oxime] | ≤ 1000 nM
2 | O=C(CCC(c1ccc(F)cc1)c1ccc(F)cc1)N1CCC(=NOCc2ccccc2)CC1 [Example 31, 1-[4,4-Bis-(4-fluorophenyl)butyryl]piperidin-4-one O-benzyloxime] | ≤ 1000 nM
3 | O=C(CCN1CCC(c2ccccc2)CC1)N1CCC(=NOCc2cccc(C(F)(F)F)c2)CC1 [Example 47, 1-[3-(4-Phenylpiperidin-1-ylpropionyl]piperidin-4-one O-(3-trifluoromethylbenzyl)oxime hydrochloride] | ≤ 1000 nM
4 | O=C(CCN1CCC(Cc2ccccc2)CC1)N1CCC(=NOCc2cccc(C(F)(F)F)c2)CC1 [Example 48, 1-[3-(4-Benzylpiperidin-1-yl)propionyl]piperidin-4-one O-(3-trifluoromethylbenzyl)oxime hydrochloride] | ≤ 1000 nM
5 | O=S(=O)(c1ccccc1)N1CCC(=NOCc2cccc(C(F)(F)F)c2)CC1 [Example 51, 1-Benzenesulfonylpiperidin-4-one O-(3-trifluoromethylbenzyl)oxime] | ≤ 1000 nM
6 | N#Cc1ccc(S(=O)(=O)N2CCC(=NOCc3cccc(C(F)(F)F)c3)CC2)cc1 [Example 53, 4-[4-(3-Trifluoromethylbenzyloxyimino)piperidine-1-sulfonyl]benzonitrile] | ≤ 1000 nM
7 | O=S(=O)(c1cccc(C(F)(F)F)c1)N1CCC(=NOCc2cccc(C(F)(F)F)c2)CC1 [Example 56, 1-(3-Trifluoromethylbenzenesulfonyl)piperidin-4-one O-(3-trifluoromethylbenzyl)oxime] | ≤ 1000 nM
8 | O=S(=O)(c1ccc(OC(F)(F)F)cc1)N1CCC(=NOCc2cccc(C(F)(F)F)c2)CC1 [Example 58, 1-(4-Trifluoromethoxybenzenesulfonyl)piperidin-4-one O-(3-trifluoromethylbenzyl)oxime] | ≤ 1000 nM
9 | O=S(=O)(c1cccc(OC(F)(F)F)c1)N1CCC(=NOCc2cccc(C(F)(F)F)c2)CC1 [Example 59, 1-(3-Trifluoromethoxybenzenesulfonyl)piperidin-4-one O-(3-trifluoromethylbenzyl)oxime] | ≤ 1000 nM
10 | O=S(=O)(c1ccc(F)cc1)N1CCC(=NOCc2cccc(C(F)(F)F)c2)CC1 [Example 62, 1-(4-Fluorobenzenesulfonyl)piperidin-4-one O-(3-trifluoromethylbenzyl)oxime] | ≤ 1000 nM
11 | O=S(=O)(c1ccccc1F)N1CCC(=NOCc2cccc(C(F)(F)F)c2)CC1 [Example 63, 1-(2-Fluorobenzenesulfonyl)piperidin-4-one O-(3-trifluoromethylbenzyl)oxime] | ≤ 1000 nM
12 | O=S(=O)(c1ccc(Cl)nc1)N1CCC(=NOCc2cccc(C(F)(F)F)c2)CC1 [Example 64, 1-(6-Chloropyridine-3-sulfonyl)piperidin-4-one O-(3-trifluoromethylbenzyl)oxime] | ≤ 1000 nM
13 | CCCCc1ccc(S(=O)(=O)N2CCC(=NOCc3cccc(Cl)c3)CC2)cc1 [Example 65, 1-(4-Butylbenzenesulfonyl)piperidin-4-one O-(3-chlorobenzyl)oxime] | ≤ 1000 nM
14 | CCCCc1ccc(S(=O)(=O)N2CCC(=NOCc3ccccc3)CC2)cc1 [Example 67, 1-(4-Butylbenzenesulfonyl)piperidin-4-one O-benzyloxime] | ≤ 1000 nM
15 | CCCCc1ccc(S(=O)(=O)N2CCC(=NOCc3ccccn3)CC2)cc1 [Example 68, 1-(4-Butylbenzenesulfonyl)piperidin-4-one O-pyridin-2-ylmethyloxime] | ≤ 1000 nM
16 | CCCCc1ccc(S(=O)(=O)N2CCC(=NOCc3ccnc(Cl)c3)CC2)cc1 [Example 69, 1-(4-Butylbenzenesulfonyl)piperidin-4-one O-(2-chloropyridin-4-ylmethyl)oxime] | ≤ 1000 nM

Row | SMILES | IC50
17 | CCCCc1ccc(S(=O)(=O)N2CCC(=NOCc3cccnc3)CC2)cc1 [Example 70, 1-(4-Butylbenzenesulfonyl)piperidin-4-one O-pyridin-3-ylmethyloxime] | ≤ 1000 nM
18 | CCCCc1ccc(S(=O)(=O)N2CCC(=NOCc3ccncc3)CC2)cc1 [Example 71, 1-(4-Butylbenzenesulfonyl)piperidin-4-one O-pyridin-4-ylmethyloxime] | ≤ 1000 nM
19 | CCCCc1ccc(S(=O)(=O)N2CCC(=NOCc3ccc(Cl)cc3)CC2)cc1 [Example 72, 1-(4-Butylbenzenesulfonyl)piperidin-4-one O-(4-chlorobenzyl)oxime] | ≤ 1000 nM
20 | CCCCc1ccc(S(=O)(=O)N2CCC(=NOCc3cc(Cl)ccn3)CC2)cc1 [Example 73, 1-(4-Butylbenzenesulfonyl)piperidin-4-one O-(4-chloropyridin-2-ylmethyl)oxime] | ≤ 1000 nM
21 | CCCCc1ccc(S(=O)(=O)N2CCC(=NOC(C)c3cccc(C(F)(F)F)c3)CC2)cc1 (stereo not shown) [Example 74, 1-(4-Butylbenzenesulfonyl)piperidin-4-one O-[1-(3-trifluoromethylphenyl)ethyl]oxime] | ≤ 1000 nM
22 | CCCCc1ccc(S(=O)(=O)N2CCC(=NOCc3cccc(Cl)n3)CC2)cc1 [Example 75, 1-(4-Butylbenzenesulfonyl)piperidin-4-one O-(6-chloropyridin-2-ylmethyl)oxime] | ≤ 1000 nM
23 | CCCCc1ccc(S(=O)(=O)N2CCC(=NOCc3cccc(OC)n3)CC2)cc1 [Example 76, 1-(4-Butylbenzenesulfonyl)piperidin-4-one O-(6-methoxypyridin-2-ylmethyl)oxime] | ≤ 1000 nM
24 | CCCCc1ccc(S(=O)(=O)N2CCC(=NOCc3ccccc3C(F)(F)F)CC2)cc1 [Example 78, 1-(4-Butylbenzenesulfonyl)piperidin-4-one O-(2-trifluoromethylbenzyl)oxime] | ≤ 1000 nM
25 | CCCCc1ccc(S(=O)(=O)N2CCC(=NOCc3cccc(OC(F)(F)F)c3)CC2)cc1 [Example 79, 1-(4-Butylbenzenesulfonyl)piperidin-4-one O-(3-trifluoromethoxybenzyl)oxime] | ≤ 1000 nM
26 | CCCCc1ccc(S(=O)(=O)N2CCC(=NOCc3cccc(OC)c3)CC2)cc1 [Example 80, 1-(4-Butylbenzenesulfonyl)piperidin-4-one O-(3-methoxybenzyl)oxime] | ≤ 1000 nM
27 | CCCCc1ccc(S(=O)(=O)N2CCC(=NOCc3ccc(F)c(C(F)(F)F)c3)CC2)cc1 [Example 81, 1-(4-Butylbenzenesulfonyl)piperidin-4-one O-(4-fluoro-3-trifluoromethylbenzyl)oxime] | ≤ 1000 nM
28 | CCCCc1ccc(S(=O)(=O)N2CCC(=NOCC3CCCCC3)CC2)cc1 [Example 82, 1-(4-Butylbenzenesulfonyl)piperidin-4-one O-cyclohexylmethyloxime] | ≤ 1000 nM
29 | Nc1ccccc1S(=O)(=O)N1CCC(=NOCc2cccc(C(F)(F)F)c2)CC1 [Example 85, 1-(2-Aminobenzenesulfonyl)piperidin-4-one O-(3-trifluoromethylbenzyl)oxime] | ≤ 1000 nM
30 | CCOc1ccc(S(=O)(=O)N2CCC(=NOCc3cccc(C(F)(F)F)c3)CC2)cc1 [Example 91, 1-(4-Ethoxybenzenesulfonyl)piperidin-4-one O-(3-trifluoromethylbenzyl)oxime] | ≤ 1000 nM
31 | CC(C)Oc1ccc(S(=O)(=O)N2CCC(=NOCc3cccc(C(F)(F)F)c3)CC2)cc1 [Example 93, 1-(4-Isopropoxybenzenesulfonyl)piperidin-4-one O-(3-trifluoromethylbenzyl)oxime] | ≤ 1000 nM
